# Results taken from US20250057959A1, “PHOSPHANE GOLD(I)-N-HETEROCYCLIC CARBENE COMPLEXES FOR TREATING CANCER” (KING FAHD UNIVERSITY OF PETROLEUM AND MINERALS, priority 2023, published 2025).
# Tests used:
# Type in all cases: cell-based, human
# A2780 = experiment: MTT cell viability assay, A2780; conditions: for IC50: 72 hours treatment, MTT; for Activity compared with cisplatin or auranofin in A2780 cells: comparison of IC50, Table 8
# From the text: (§1) Human epithelial ovarian cancer A2780 cell line and its cisplatin-resistant clone A2780cis were obtained from Sigma-Aldrich (Milano, Italy). SKOV3 (HTB-77) cells were from the American Type Culture Collection (ATCC). The two cell lines were selected to reflect the two different stages of OvCa and different sensitivity to cisplatin. A2780 cell lines were derived from the ovarian tumor tissue of an untreated patient, while SKOV3 was from the ascitic fluids (after metastasis). Cells were authenticated in the laboratory using PowerPlex 16 HS system (Promega) and GeneMapper ID version 3.2.1 to identify DNA short tandem repeats. Cell lines were cultured in RPMI-1640 medium containing 10% fetal bovine serum (FBS) (Gibco, Thermo Fisher Scientific, U.S.A), 1% (v/v) of penicillin (10,000 units/mL)-streptomycin (10 mg/mL), and 1% (v/v) L-glutamine (200 mM) (all from Sigma- Aldrich) at 37° C. in a 5% CO2 fully humidified atmosphere. A2780cis cells were continuously exposed to 1 μM cisplatin to maintain cisplatin resistance. Adipose-derived stem cells (ADSCs) were purchased from Lonza and maintained in mesenchymal-stem-cell growth medium Bulletkit MSCGM (Lonza, Verviers, Belgium).
# (§2) 4.0×10^3/mL A2780, A2780cis, and SKOV3 cells were seeded in 96-well microplates in 100 μL of culture medium. Cells were allowed to adhere for 24 hours and then were treated in triplicate with increasing concentrations of gold compounds (0-1 μM). Cisplatin was included as a reference drug. Cell viability was evaluated using 3-(4,5-dimethylthiazol-2-yl)-2,5-diphenyltetrazolium bromide (MTT) assay (Sigma-Aldrich) after 72 hours of treatment. Half maximal inhibitory concentrations (IC50) were calculated using the CalcuSyn software version 2 (Biosoft, Ferguson, MO, USA). Fold resistance was calculated as the ratio of the IC50 of the A2780cis to that of the parental cell line A2780.
# A2780cis [1] = experiment: MTT cell viability assay, cisplatin-resistant A2780cis; conditions: for IC50: 72 hours treatment, MTT; for Fold resistance (A2780cis/A2780): IC50 A2780cis/IC50 A2780
# From the text: Human epithelial ovarian cancer A2780 cell line and its cisplatin-resistant clone A2780cis were obtained from Sigma-Aldrich (Milano, Italy). SKOV3 (HTB-77) cells were from the American Type Culture Collection (ATCC). The two cell lines were selected to reflect the two different stages of OvCa and different sensitivity to cisplatin. A2780 cell lines were derived from the ovarian tumor tissue of an untreated patient, while SKOV3 was from the ascitic fluids (after metastasis). […] Cell lines were cultured in RPMI-1640 medium containing 10% fetal bovine serum (FBS) (Gibco, Thermo Fisher Scientific, U.S.A), 1% (v/v) of penicillin (10,000 units/mL)-streptomycin (10 mg/mL), and 1% (v/v) L-glutamine (200 mM) (all from Sigma- Aldrich) at 37° C. in a 5% CO2 fully humidified atmosphere. […] Cisplatin was included as a reference drug. […] Fold resistance was calculated as the ratio of the IC50 of the A2780cis to that of the parental cell line A2780.
# SKOV3-MCTSs = experiment: SKOV3-MCTS spheroid volume
# Procedure: To generate single spheroids with defined size, 1.0×10^3/mL SKOV3 cells were seeded 4 days under nonadherent conditions in U-bottom 96-well plates coated twice with 20 mg/mL of poly(2-hydroxyethyl methacrylate) (poly-HEMA; Sigma) in 95% ethanol. Spheroid size was measured at days 0, 3, and 7 after drug treatment initiation using an inverted microscope (Eclipse TS/100, Nikon, Tokyo, Japan) with photomicrographic systems DS camera control unit DS-L2. Spheroid volumes were calculated using the formula (width^2×length×3.14)/6.
# SKOV3 cells = experiment: MTT cell viability assay, SKOV3; conditions: 72 hours treatment
# From the text: as §1, §2
# A2780 cells [2] = experiment: ROS generation (MitoSOX red), flow cytometry, A2780; conditions: cisplatin 0.50 μM; from 6.4%
# Procedure: 2.0×10^5/mL A2780 and A2780cis cells were seeded in 6-well plates in complete medium and treated with complex 6 (0.15 μM and 0.5 μM). Results were detected by flow cytometry on a BD FACSCanto II flow cytometer. Data were analyzed using BD FACSDiva version 8.0.1 software (BD Biosciences) unless otherwise indicated. To evaluate apoptosis, tumor cells were treated for 48 hours and then stained for 15 minutes with FITC annexin-V (Thermo Fisher Scientific) and 7AAD (BD Pharmingen). […] For B-cell lymphoma/leukemia-2 (Bcl-2) and Bcl-2 associated x protein (Bax) evaluation, cells were fixed and permeabilized using FIX & PERM cell fixation and cell permeabilization kit (Life Technologies). For ROS generation, cells were stained with 5 μM MitoSOX red mitochondrial superoxide indicator (ThermoFisher Scientific) in a working solution for 30 minutes at 37° C. Cell cycle analysis was performed after 24 hours treatment with complex 6. Cells were harvested, fixed in cold 70% ethanol for 15 minutes, and stained with propidium iodide (PI) solution ([…] PI, 0.1% NP-40, 100 µg/mL PureLink RNase A, 0.1% sodium citrate) for 1 hour. The distribution of cells in different cell cycle phases was quantified using ModFit LT 4.0 software (Verity Software House, Topsham, ME, USA).
# A2780 and A2780cis cells [3] = experiment: DNA double-strand breaks, γ-H2AX western blot
# Procedure: Whole-cell lysates were prepared using cold RIPA buffer [150 mM NaCl, 50 mM Tris-HCl (pH 8), 0.1% SDS, 1% Igepal, and 0.5% desoxycholate sodium] containing a protease inhibitor cocktail (Roche Diagnostics S.p.a., Milan, Italy), phosphatase inhibitors 1 mM Na3VO4 and 1 mM NaF (Sigma-Aldrich). Protein concentrations were determined using the BioRad protein assay (Bio-Rad Laboratories, Inc., CA, USA). Equal amounts of proteins were mixed with Laemmli buffer, separated in 4-20% SDS-PAGE (Criterion Precast Gel, BioRad), and blotted onto a nitrocellulose membrane (Amersham, GE Healthcare). Membrane strips were blocked with EveryBilot blocking buffer (Bio-Rad) and incubated at 4° C. overnight with primary antibodies probed with the appropriate antibodies (Table 2) and developed using Immobilon Western chemioluminescent HRP substrate. Images were acquired using a ChemiDoc XRS system (Bio-Rad).
# A2780 cells [4] = experiment: Cell cycle analysis (PI, flow cytometry), A2780; conditions: for Effect on cell cycle phases: A2780, 24 hours, auranofin 0.5 μM (IC50), cisplatin 0.50 μM
# Procedure: (§3) Results were detected by flow cytometry on a BD FACSCanto II flow cytometer. Data were analyzed using BD FACSDiva version 8.0.1 software (BD Biosciences) unless otherwise indicated. To evaluate apoptosis, tumor cells were treated for 48 hours and then stained for 15 minutes with FITC annexin-V (Thermo Fisher Scientific) and 7AAD (BD Pharmingen). […] For B-cell lymphoma/leukemia-2 (Bcl-2) and Bcl-2 associated x protein (Bax) evaluation, cells were fixed and permeabilized using FIX & PERM cell fixation and cell permeabilization kit (Life Technologies). […] The distribution of cells in different cell cycle phases was quantified using ModFit LT 4.0 software (Verity Software House, Topsham, ME, USA).
# A2780 and A2780cis cells [5] = experiment: Apoptosis by flow cytometry (annexin-V/7AAD, caspase-3,7, BAX, Bcl-2); conditions: 48 hours; complex 6 and auranofin at IC50 and IC75, cisplatin 0.15 μM and 0.50 μM
# Procedure: as §3
# A2780cis [6] = experiment: Cell cycle analysis (PI, flow cytometry), A2780cis; conditions: 24 hours
# Procedure: as §3
# A2780 and A2780cis cells [7] = experiment: mitROS generation (MitoSOX red), flow cytometry
# Procedure: as §3
SMILES,IC50 (A2780) [nM],IC50 (A2780cis [1]) [nM],Fold resistance (A2780cis/A2780) (A2780cis [1]),Activity compared with cisplatin or auranofin in A2780 cells (A2780),further results
"CC(C)c1cccc(C(C)C)c1-n1ccn(-c2c(C(C)C)cccc2C(C)C)[c]1=[Au+][PH](CCC#N)(CCC#N)c1ccccc1.F[P-](F)(F)(F)(F)F [Complex 1, [Au(IPr)(C12H13N2P)] PF6]",2000 ± 190,3550 ± 350,1.78,–,–
"N.N.[Cl][Pt][Cl] [Cisplatin, reference compound]",1500,10400,6.93,–,"Decrease of SKOV3-MCTS growth with respect to control (SKOV3-MCTSs; 1 μM, 7 days): 16%; IC50 (SKOV3 cells): 5400 nM; ROS generation (positive cells) (A2780 cells [2]): 17.4%; DNA double-strand breaks (γH2AX) (A2780 and A2780cis cells [3]): did not induce; Effect on cell cycle phases (A2780 cells [4]): slight increase of the G2/M phase; Apoptosis (annexin-V / 7AAD positive cells) (A2780 and A2780cis cells [5]): did not induce apoptosis"
"CC(C)c1cccc(C(C)C)c1-n1ccn(-c2c(C(C)C)cccc2C(C)C)[c]1=[Au+][PH](CCCN)(c1ccccc1)c1ccccc1.F[P-](F)(F)(F)(F)F [Complex 7, [Au(IPr)(C15H18NP)] PF6]",1420 ± 120,1800 ± 150,1.27,–,–
"CC(C)c1cccc(C(C)C)c1-n1ccn(-c2c(C(C)C)cccc2C(C)C)[c]1=[Au+][PH](CC(N)c1ccccc1)(c1ccccc1)c1ccccc1.F[P-](F)(F)(F)(F)F (stereo not shown) [Complex 4, [Au(IPr)(C20H20NP)] PF6]",820 ± 50,1170 ± 150,1.43,more active than cisplatin,–
"CC(C)c1cccc(C(C)C)c1-n1ccn(-c2c(C(C)C)cccc2C(C)C)[c]1=[Au+][PH](c1ccccc1)(c1ccccc1)C(c1ccccc1)C(N)c1ccccc1.F[P-](F)(F)(F)(F)F (stereo not shown) [Complex 3, [Au(IPr)(C26H24NP)] PF6]",780 ± 60,1140 ± 100,1.46,more active than cisplatin,–
"CC(C)c1cccc(C(C)C)c1-n1ccn(-c2c(C(C)C)cccc2C(C)C)[c]1=[Au+][PH](c1ccccc1)(c1ccccc1)[C@@H]1CCCC[C@H]1N.F[P-](F)(F)(F)(F)F [Complex 2, [Au(IPr)(C18H22NP)] PF6]",500 ± 40,800 ± 40,1.6,more active than cisplatin,–
"CC[PH](CC)(CC)[Au][S][C@@H]1O[C@H](COC(C)=O)[C@@H](OC(C)=O)[C@H](OC(C)=O)[C@H]1OC(C)=O [Auranofin, (2,3,4,6-tetra-O-acetyl-L-thio-β-D-glycopyranosato-S-)-(triethylphosphane)gold(I), reference compound]",510 ± 70,1910 ± 220,3.7,–,"Effect on SKOV3-MCTSs at 1 μM (SKOV3-MCTSs; 1 μM): did not reduce SKOV3-MCTS volume; Concentration at which SKOV3-MCTS growth inhibition was seen (SKOV3-MCTSs; 72 hours): higher than 5 μM; IC50 (A2780; listed as auranofin): 500 nM; IC50 (SKOV3 cells): 2300 nM; DNA double-strand breaks (γH2AX) (A2780 and A2780cis cells [3]): induced; sub-G0/G1 phase (DNA fragmentation) (A2780 cells [4]; A2780, 0.8 μM (IC75), 24 hours): 11%; Effect on cell cycle phases (A2780 cells [4]): decreased the G1 phase; IC50 (A2780cis [1]; listed as auranofin): 1900 nM; sub-G0/G1 phase (DNA fragmentation) (A2780cis [6]; 2.5 μM (IC75)): 1.7%; Effect on cell cycle phases (A2780cis [6]): slightly decreased the G1 phase and increased the S phase; mitROS generation (A2780 and A2780cis cells [7]): induced ROS generation; Apoptosis (annexin-V / 7AAD positive cells) (A2780 and A2780cis cells [5]): less active in inducing apoptosis in cisplatin-resistant A2780cis than in A2780 cells"
"CC(C)c1cccc(C(C)C)c1-n1ccn(-c2c(C(C)C)cccc2C(C)C)[c]1=[Au+][PH](CC(N)C(C)(C)C)(c1ccccc1)c1ccccc1.F[P-](F)(F)(F)(F)F (stereo not shown) [Complex 5, [Au(IPr)(C18H24NP)] PF6]",750 ± 70,920 ± 80,1.23,more active than cisplatin,–
